Results: paper PMC7772889, “Integrating biokinetics and in vitro studies to evaluate developmental neurotoxicity induced by chlorpyrifos in human iPSC-derived neural stem cells undergoing differentiation towards neuronal and glial cells” (Reproductive Toxicology (Elmsford, N.y.), 2020)

What was measured:
[1] = test system: hiPSC-derived NSCs undergoing differentiation; set-up: method as in PMID 32093744; settings: 14-day treatment; cited from earlier work
[2] = test system: hiPSC-derived NSCs undergoing differentiation; test: Neurite outgrowth by immunocytochemistry and high content imaging (β-III-tubulin); type: cell-based, human; settings: 14 days
Protocol: After 14 days of treatment with CPF at the nominal concentrations of 18.45, 21.21, 24.39, 28.05, 32.26, and 37.10 μM (37.10 μM equal to IC20), obtained considering a 1-to-1.15 dilution factor, cells were fixed with 4 % formaldehyde for 10 min and washed three times in PBS 1 × . After 15 min permeabilization with PBS 1X containing 0.1 % Triton-X-100 and 3,5 % bovine serum albumin (BSA), cells were further incubated with 3,5 % BSA and 1X PBS (blocking solution) for 15 min, to prevent nonspecific binding of antibodies, and then incubated at 4 °C overnight with primary antibodies in blocking solution. For synaptogenesis analysis, cells were stained with microtubule-associated protein-2 (MAP2, chicken, 1:3000, Abcam), synaptophysin (pre-synaptic marker) (SYP, rabbit, 1:300, Abcam), and post-synaptic density protein 95 (PSD95, mouse, 1:300, Abcam) specific antibodies. Neurite outgrowth and BDNF protein levels were assessed by staining the cells with an antibody specific for β-III-tubulin (mouse, 1:500, ThermoFisher), and one for BDNF (rabbit, 1:70, ThermoFisher). Cells were also stained for glial fibrillary acidic protein (GFAP, chicken, 1:500, Abcam). The following day, cells were washed three times with PBS 1X and incubated for 1 h at room temperature in the dark with DyLight-conjugated secondary antibodies (1:500, Abcam) and nuclei counterstained with 1 μg/mL DAPI (ThermoFisher). Mean fluorescence intensity and the relative percentages of immunocytochemically-defined cell types were quantified using the ArrayScan™ XTI High Content Platform (Cellomics) (ThermoFisher) and the ArrayScan algorithm 'Neuronal Profiling V4.1', as previously described. This algorithm applies a specific nucleus mask around the DAPI stained nucleus, distinguishing between live and pyknotic/dead cells, a cell body mask around the cell type antibody/antigen staining (i.e., MAP2, β-III-tubulin, or GFAP). Other masks were applied to identify the neurites, their branch points, and the fluorescence intensity levels of SYP and PSD95 puncta, or BDNF protein. […]

[3] = cited from earlier work
[4] = test system: hiPSC-derived NSCs undergoing differentiation; set-up: method as in PMID 32093744; settings: 14-day treatment, resazurin, cited from earlier work
[5] = test system: hiPSC-derived NSCs undergoing differentiation; test: Proportion of neurons (β-III-Tubulin+) and astrocytes (GFAP+) by immunocytochemistry and HCI; type: cell-based, human; settings: 14 days
Protocol: (§1) After 14 days of treatment with CPF at the nominal concentrations of 18.45, 21.21, 24.39, 28.05, 32.26, and 37.10 μM (37.10 μM equal to IC20), obtained considering a 1-to-1.15 dilution factor, cells were fixed with 4 % formaldehyde for 10 min and washed three times in PBS 1 × . After 15 min permeabilization with PBS 1X containing 0.1 % Triton-X-100 and 3,5 % bovine serum albumin (BSA), cells were further incubated with 3,5 % BSA and 1X PBS (blocking solution) for 15 min, to prevent nonspecific binding of antibodies, and then incubated at 4 °C overnight with primary antibodies in blocking solution. […] Neurite outgrowth and BDNF protein levels were assessed by staining the cells with an antibody specific for β-III-tubulin (mouse, 1:500, ThermoFisher), and one for BDNF (rabbit, 1:70, ThermoFisher). […] Mean fluorescence intensity and the relative percentages of immunocytochemically-defined cell types were quantified using the ArrayScan™ XTI High Content Platform (Cellomics) (ThermoFisher) and the ArrayScan algorithm 'Neuronal Profiling V4.1', as previously described. […] Other masks were applied to identify the neurites, their branch points, and the fluorescence intensity levels of SYP and PSD95 puncta, or BDNF protein. […]

BDNF protein = BDNF protein levels by immunocytochemistry and HCI; type: cell-based, human; settings: 14 days of CPF treatment, dose-dependent, vs solvent control
Protocol: as §1

neuron-only cultures = settings: cited from earlier work
[6] = Non-specific binding to the matrix (Matrigel, without cells); type: in vitro ADME; settings: no cells
Protocol: Due to the presence of Matrigel (Reduced Growth Factors), pre-coated well plates were treated in parallel, with the same experimental conditions of the main experiment, but in the absence of cells. In order to determine if and how CPF was sequestered by proteins in Matrigel, the content of the pre-coated wells was transferred into amber glass vials with screw caps and stored at −80 °C until HPLC analysis. For all these analyses, 4 biological replicates were carried out.

[7] = test system: hiPSC-derived NSCs undergoing differentiation; test: Synaptogenesis by immunocytochemistry and HCI (overlapping SYP+/PSD95+ puncta); type: cell-based, human; settings: 14 days, concentrations ≤ IC20
Protocol: as §1

[8] = test system: CYP and GST gene expression in hiPSC-derived NSCs undergoing differentiation; test: qPCR analysis of CYP and GST gene expression after CPF treatment; type: cell-based, human; settings: 21 μM CPF
Protocol: Analysis of gene expression by qPCR was performed in hiPSC-derived NSCs undergoing differentiation upon single and repeated treatment with 21 μM CPF or solvent control (0.1 % DMSO), collecting samples after 1, 3, 6 and 24 h (as shown in Fig. 2). RNA was isolated using the RNAqueous®-Micro Kit (ThermoFisher) according to manufacturer's instructions, and 500 ng of total RNA was reverse transcribed by using the High Capacity cDNA Reverse Transcription Kit (as directed, ThermoFisher).
qPCR reactions were run in duplicate using TaqMan® Gene Expression Master Mix (ThermoFisher) and the TaqMan gene expression assays shown in Table 1 (all from ThermoFisher).
Fluorescent emission was recorded in real-time using the ABI PRISM Sequence Detection System 7900HT (ThermoFisher). PCR amplification conditions consisted of 45 cycles with primers annealing at 60 °C. Relative RNA quantities were normalized to the reference genes GAPDH and Bactin and untreated cells were used to set calibrating conditions (ΔΔCt Method). Three biological replicates were performed.

In the case of `CCOP(=S)(OCC)Oc1nc(Cl)c(Cl)cc1Cl` [CPF, Chlorpyrifos], the “in vitro nominal LOAEC for synaptogenesis” value [1] is given as 21 µM, the length of neurites ([2]; concentrations ≤ IC20) is given as “not significantly affected” and the “number of branch points/neurite (neurite complexity)” value ([2]; concentrations ≤ IC20) is given as “lower number of branch points/neurite”. For the same compound, the number of neurites/neuron ([2]; concentrations ≤ IC20 (18.45-37.10 μM)) was “concentration dependent decrease”, the “exposure in new-borns, concentration in blood” value [3] was “up to 4.9 μM” and the “exposure in new-borns, concentration in meconium” value [3] was 23.6 µM. The “IC5 (nominal concentration causing 5 % decrease of viability)” value [4] was 21 µM, the IC20 ([4]; nominal concentration, read-out: IC20 (viability)) was 37.1 µM and the “increase of neuronal cell percentage (β-III-Tubulin+)” value ([5]; all tested concentrations) was 10–15%. The “increase of GFAP+ cell percentage vs solvent control” value ([5]; concentration dependent) was 2- to 2.8 fold, the “increase of BDNF protein levels” value (BDNF protein) was at most 55% and the “concentration from which inhibition of neurite length, neurite number and branch points was observed” value (neuron-only cultures) was 10 µM. For the same compound, the Bound-to-matrigel fraction ([6]; first day of treatment) was 1.7−4.2%, the Bound-to-matrigel fraction ([6]; last day of treatment) was 5.8−6.5% and the “number of synapses (co-localization of SYP+/PSD95+ puncta)” value [7] was “remarkable dose-dependent decrease”. The CYP-2C9 gene expression ([8]; first day of treatment) was “tendency towards upregulation”, the GST gene expression ([8]; first day of treatment) was “did not change” and the CYP-1A1 gene expression ([8]; first day of treatment, after 3 h, 6 h and 24 h) was “Up-regulation”. For the same compound, the GST-A4 gene expression ([8]; first day, after 6 h treatment) was “modest decrease”, the CYP gene expression ([8]; repeated treatment) was “did not significantly change” and the “GST gene expression (all analysed GST genes)” value ([8]; repeated treatment) was “significant downregulation”. The CYP-2C19 gene expression ([8]; repeated treatment, after 1 h) was “transient upregulation”.
